# Like-named read-outs stand apart in the source and are kept apart here.
# Tests used:
# Format in all cases: cell-based
# hTLR7 = target: T1, hTLR7 (Homo sapiens, UniProt Q9NYK1); test: Reporter Gene Assay (RGA), HEK-Blue hTLR7 reporter cells, SEAP readout; conditions: overnight incubation, SEAP absorbance 620 nm
# T1 construct: host or cells: HEK-Blue hTLR7 reporter cells (HEK293-derived, own knowledge)
# T1 sequence (Q9NYK1 27-1049): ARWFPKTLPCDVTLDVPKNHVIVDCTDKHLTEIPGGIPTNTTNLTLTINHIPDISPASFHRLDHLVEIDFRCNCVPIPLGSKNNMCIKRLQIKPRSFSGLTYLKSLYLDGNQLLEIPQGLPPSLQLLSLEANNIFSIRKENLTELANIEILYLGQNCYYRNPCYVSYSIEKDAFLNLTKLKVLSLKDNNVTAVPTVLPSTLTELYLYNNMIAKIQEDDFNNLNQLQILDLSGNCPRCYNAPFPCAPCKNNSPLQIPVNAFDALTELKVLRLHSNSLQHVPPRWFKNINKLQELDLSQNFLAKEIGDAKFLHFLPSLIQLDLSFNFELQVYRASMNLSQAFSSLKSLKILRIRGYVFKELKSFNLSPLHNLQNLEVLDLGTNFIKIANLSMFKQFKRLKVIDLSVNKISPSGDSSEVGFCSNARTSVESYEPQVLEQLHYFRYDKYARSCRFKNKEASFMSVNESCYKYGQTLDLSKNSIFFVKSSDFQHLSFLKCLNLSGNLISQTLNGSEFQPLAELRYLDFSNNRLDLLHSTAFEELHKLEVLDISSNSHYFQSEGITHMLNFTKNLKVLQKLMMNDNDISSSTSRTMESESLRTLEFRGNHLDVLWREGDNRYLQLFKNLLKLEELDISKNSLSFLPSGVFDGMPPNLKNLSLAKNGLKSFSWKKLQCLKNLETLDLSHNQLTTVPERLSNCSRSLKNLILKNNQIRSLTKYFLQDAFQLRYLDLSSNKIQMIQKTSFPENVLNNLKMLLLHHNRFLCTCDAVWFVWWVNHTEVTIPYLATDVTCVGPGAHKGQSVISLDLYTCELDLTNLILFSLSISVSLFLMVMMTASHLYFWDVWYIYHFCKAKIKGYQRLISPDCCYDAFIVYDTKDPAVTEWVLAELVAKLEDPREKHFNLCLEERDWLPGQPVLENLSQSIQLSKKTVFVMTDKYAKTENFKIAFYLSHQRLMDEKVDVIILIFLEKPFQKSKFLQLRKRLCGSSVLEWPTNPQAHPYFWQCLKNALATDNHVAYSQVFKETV
# Experimental: (§1) 1.5×10^4 HEK-Blue™ hTLR7 (Invivogen, San Diego, CA) or HEK-Blue™ mTLR7 (Invivogen, San Diego, CA) reporter cells were treated with a titration series of test compound (4-fold titration from […], 11 points). Compounds were initially diluted to 1 mM in DMSO and subsequently serial-diluted in assay media (HEK-Blue™ Detection; Invivogen, San Diego, CA). Cells with test compound were incubated overnight at 37° C.+5% CO2, and the amount of secreted embryonic alkaline phosphatase (SEAP) was determined by measuring absorbance (620 nm) using a Synergy™ H1 microplate reader.
# (§2) Each assay included a positive control compound (referred to herein as “benchmark,” see, e.g., TABLE 3 below, and taken from International Patent Publication No. WO2017/072662, structure shown below) and a negative control (growth medium). […] The structure of the benchmark compound from International Patent Publication No. WO 2017/072662 is as follows: […]
# [1] = tested on: Human peripheral blood mononuclear cells (PBMCs); test: Human PBMC Assay, cytokine release (HTRF); conditions: 24 hours; for EC50: PBMC
# Text: Human peripheral blood mononuclear cells (PBMCs) were isolated from fresh Leukopak using magnetic separation. Briefly, erythrocytes and granulocytes were magnetically labeled with Erythrocyte Depletion MicroBeads (Miltenyi Biotec) and Granulocyte Depletion MicroBeads (Miltenyi Biotec), respectively. The cell suspension was loaded onto a Multi-24 Column Block (Miltenyi Biotec) and placed in the magnetic field of a MultiMACS Cell24 Separator Plus (Miltenyi Biotec). The unlabelled PBMCs were collected in the run through. PBMCs were resuspended in CryoStor® CS10 ([…]) and frozen. On the day before the assay, PBMCs were thawed in warm assay buffer (RPMI+10% FBS) and resuspended in assay buffer+10 ng/ml hIL3 (R&D Systems). Cells were rested at 37° C.+5% CO2 overnight. The following day, cells were spun down and resuspended in fresh assay buffer. 300,000 cells were added to each well of plates containing test compound. For test compound preparation, each compound was initially diluted to 1 mM in DMSO and further diluted in assay buffer. A 4-fold 11-point titration starting from 15 μM was performed. Cells were incubated with test compound at 37° C.+5% CO2 for 24 hours before supernatant was harvested. Human interleukin 6 (hIL6), human tumor necrosis factor alpha (hTNFα), and human interferon alpha (hIFNα) were quantified in the supernatant using homogeneous time resolved fluorescence (Cisbio).
# as §2
# mTLR7 = target: T2, mTLR7 (Mus musculus, UniProt P58681); test: Reporter Gene Assay (RGA), HEK-Blue mTLR7 reporter cells, SEAP readout; conditions: overnight incubation, SEAP absorbance 620 nm
# T2 construct: host or cells: HEK-Blue mTLR7 reporter cells (HEK293-derived, own knowledge)
# T2 sequence (P58681 27-1050): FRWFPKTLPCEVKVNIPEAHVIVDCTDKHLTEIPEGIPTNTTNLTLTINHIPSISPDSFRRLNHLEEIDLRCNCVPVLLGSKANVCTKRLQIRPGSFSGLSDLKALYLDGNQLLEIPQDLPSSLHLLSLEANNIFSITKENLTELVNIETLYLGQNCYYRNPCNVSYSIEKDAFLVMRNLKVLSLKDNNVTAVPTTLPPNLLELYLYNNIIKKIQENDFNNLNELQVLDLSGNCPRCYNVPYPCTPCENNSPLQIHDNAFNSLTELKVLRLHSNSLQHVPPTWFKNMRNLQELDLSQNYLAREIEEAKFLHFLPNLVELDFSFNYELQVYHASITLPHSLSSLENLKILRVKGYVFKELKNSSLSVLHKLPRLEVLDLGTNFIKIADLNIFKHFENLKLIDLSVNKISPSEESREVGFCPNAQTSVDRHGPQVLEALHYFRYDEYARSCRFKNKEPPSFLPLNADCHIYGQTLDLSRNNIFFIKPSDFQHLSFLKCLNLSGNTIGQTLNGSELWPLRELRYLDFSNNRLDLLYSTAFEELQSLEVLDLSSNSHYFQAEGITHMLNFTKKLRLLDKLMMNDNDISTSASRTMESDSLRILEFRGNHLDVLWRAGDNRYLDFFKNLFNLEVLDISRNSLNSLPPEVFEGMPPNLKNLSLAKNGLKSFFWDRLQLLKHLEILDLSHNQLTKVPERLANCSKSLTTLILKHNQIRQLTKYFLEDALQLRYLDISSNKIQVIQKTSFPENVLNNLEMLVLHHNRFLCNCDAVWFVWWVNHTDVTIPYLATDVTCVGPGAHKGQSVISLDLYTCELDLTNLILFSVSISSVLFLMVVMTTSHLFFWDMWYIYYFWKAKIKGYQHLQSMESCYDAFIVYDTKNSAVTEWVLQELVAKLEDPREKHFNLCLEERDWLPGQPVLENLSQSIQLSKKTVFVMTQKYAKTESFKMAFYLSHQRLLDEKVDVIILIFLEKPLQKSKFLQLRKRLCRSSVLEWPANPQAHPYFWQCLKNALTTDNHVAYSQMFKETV
# Experimental: as §1, §2
# Mouse splenocytes = test: Mouse Splenocyte Assay, cytokine release (HTRF); conditions: 24 hours, mIL6 in supernatant; for EC50: Splenocyte, read-out: Splenocyte IL6 EC50
# Experimental: Mouse splenocytes were isolated from fresh mouse spleens. Briefly, spleens were harvested from female balb/c nude mice and transferred to a 70 μm cell strainer. The cell strainer was subsequently placed in a 6-well suspension culture plate containing 5 mL media (RPMI+10% FBS). The spleens were crushed against the cell strainer using the flat end of a 10 mL syringe plunger and the cell strainer was washed with 5 mL media. The cell strainer was discarded, and the cell suspension was washed in PBS. Red blood cells were removed using PharmaLyse (BD). The cell suspension was washed in media, resuspended in CryoStor® CS10 ([…]) and frozen. On assay day, mouse splenocytes were thawed in warm assay buffer (RPMI+10% FBS). Cells were spun down and resuspended in fresh assay buffer. 100,000 cells were added to each well of plates containing test compound. For test compound preparation, each compound was initially diluted to 1 mM in DMSO and further diluted in assay buffer. A 4-fold 11-point titration starting from 15 μM was performed. Cells were incubated with test compound at 37° C.+5% CO2 for 24 hours before supernatant was harvested. Murine IL6 (mIL6) and murine TNFα (mTNFα) were quantified in the supernatant using homogeneous time resolved fluorescence (Cisbio).
# as §2
# [2] = hIFNα in supernatant, EC50 values approximated and divided into groups, read-out: PBMC IFNa EC50
# [3] = hIL6 in supernatant, read-out: PBMC IL6 EC50
SMILES,EC50 (hTLR7),"EC50 [1, 2]","EC50 [1, 3]",EC50 (mTLR7),Splenocyte IL6 EC50 (nM) (Mouse splenocytes),EC50 (Mouse splenocytes),PBMC IL6 EC50 (nM) ([1]; hIL6 in supernatant)
"CCOc1nc(N)c2nc(O)n(Cc3ccc(CN4C[C@@H]5C[C@H]4CN5)cc3OC)c2n1 [Compound 128, 9-(4-(((1S,4S)-2,5-diazabicyclo[2.2.1]heptan-2-yl)methyl)-2-methoxybenzyl)-6-amino-2-ethoxy-9H-purin-8-ol]",18.2 nM,1 to 10 nM,167 nM,443 nM,inactive,,
"CCOc1nc(N)c2nc(O)n(Cc3ccc(CNCc4ccc(CN5CCC(NC(=O)OC(C)(C)C)CC5)cc4)cc3OC)c2n1 [Compound 143, tert-butyl-(1-(4-(((4-((6-amino-2-ethoxy-8-hydroxy-9H-purin-9-yl)methyl)-3-methoxybenzyl)amino)methyl)benzyl)piperidin-4-yl)carbamate]",0.2 nM,< 0.1 nM,27.1 nM,15.1 nM,,9.6 nM,
"CCOc1nc(N)c2nc(O)n(Cc3ccc(CNCc4ccc(CN(CC(=O)O)CC(=O)O)cc4)cc3OC)c2n1 [Compound 151, 2,2′-((4-(((4-((6-amino-2-ethoxy-8-hydroxy-9H-purin-9-yl)methyl)-3-methoxy-benzyl)amino)methyl)benzyl)azanediyl)diacetic Acid]",12.1 nM,> 10 nM,59.2 nM,125 nM,,68.8 nM,
"CCNCc1ccc(Cn2c(O)nc3c(N)nc(OCC)nc32)c(OC)c1 [Compound 124, 6-amino-2-ethoxy-9-(4-((ethylamino)methyl)-2-methoxybenzyl)-9H-purin-8-ol]",5.4 nM,0.1 to 1 nM,674 nM,33.5 nM,,744 nM,
"CCCCOc1nc(N)c2nc(O)n(Cc3ccc(CN4CCNCC4)cc3)c2n1 [Compound 166, 6-amino-2-butoxy-9-(4-(piperazin-1-ylmethyl)benzyl)-9H-purin-8-ol]",< 0.1 nM,> 10 nM,1570 nM,11 nM,,150 nM,
"CCOc1nc(N)c2nc(O)n(Cc3ccc(CNCc4ccccc4)cc3OC)c2n1 [Compound 107, 6-amino-9-(4-((benzylamino)methyl)-2-methoxybenzyl)-2-ethoxy-9H-purin-8-ol]",13 nM,0.1 to 1 nM,2720 nM,0.3 nM,,33.3 nM,
"CCOc1nc(N)c2nc(O)n(Cc3ccc(CNCCCCCO)cc3OC)c2n1 [Compound 103, 6-amino-2-ethoxy-9-(4-(((5-hydroxypentyl)amino)methyl)-2-methoxy-benzyl)-9H-purin-8-ol]",138 nM,0.1 to 1 nM,9270 nM,27.4 nM,,1330 nM,
"CCOc1nc(N)c2nc(O)n(Cc3ccc(CNCc4ccc(CN5CCC(N)CC5)cc4)cc3OC)c2n1 [Compound 144, 6-amino-9-(4-(((4-((4-aminopiperidin-1-yl)methyl)benzyl)amino)methyl)-2-methoxybenzyl)-2-ethoxy-9H-purin-8-ol]",79.5 nM,> 10 nM,191 nM,1330 nM,,372 nM,
"CCOc1nc(N)c2nc(O)n(Cc3ccc(CNCCCCN)cc3OC)c2n1 [Compound 106, 6-amino-9-(4-(((4-aminobutyl)amino)methyl)-2-methoxybenzyl)-2-ethoxy-9H-purin-8-ol]",348 nM,1 to 10 nM,688 nM,94.1 nM,,2060 nM,
"CCOc1nc(N)c2nc(O)n(Cc3ccc(CN[C@H](CO)[C@@H](C)CC)cc3OC)c2n1 [Compound 122, 6-amino-2-ethoxy-9-(4-((((2S,3S)-1-hydroxy-3-methylpentan-2-yl)amino)-methyl)-2-methoxybenzyl)-9H-purin-8-ol]",9 nM,0.1 to 1 nM,279 nM,10.2 nM,,66.1 nM,
"CCCCOc1nc(N)c2nc(O)n(Cc3ccc(CCCN4CCC(CCN)CC4)cc3OC)c2n1 [Compound 175, 6-amino-9-(4-(3-(4-(2-aminoethyl)piperidin-1-yl)propyl)-2-methoxybenzyl)-2-butoxy-9H-purin-8-ol]",< 0.1 nM,> 10 nM,,< 0.1 nM,,6 nM,inactive

# — patent US20250170266A1 (ZYMEWORKS BC INC., priority 2022, published 2025)
